# In ChEMBL document CHEMBL1131477, “Synthesis and biological activity of a novel series of nonsteroidal, peripherally selective androgen receptor antagonists derived from 1,2-dihydropyridono[5,6-g]quinolines” (J Med Chem, 1998):
# Target: T1, Progesterone receptor (Homo sapiens) (UniProt P06401)
# T1 sequence (whole entry): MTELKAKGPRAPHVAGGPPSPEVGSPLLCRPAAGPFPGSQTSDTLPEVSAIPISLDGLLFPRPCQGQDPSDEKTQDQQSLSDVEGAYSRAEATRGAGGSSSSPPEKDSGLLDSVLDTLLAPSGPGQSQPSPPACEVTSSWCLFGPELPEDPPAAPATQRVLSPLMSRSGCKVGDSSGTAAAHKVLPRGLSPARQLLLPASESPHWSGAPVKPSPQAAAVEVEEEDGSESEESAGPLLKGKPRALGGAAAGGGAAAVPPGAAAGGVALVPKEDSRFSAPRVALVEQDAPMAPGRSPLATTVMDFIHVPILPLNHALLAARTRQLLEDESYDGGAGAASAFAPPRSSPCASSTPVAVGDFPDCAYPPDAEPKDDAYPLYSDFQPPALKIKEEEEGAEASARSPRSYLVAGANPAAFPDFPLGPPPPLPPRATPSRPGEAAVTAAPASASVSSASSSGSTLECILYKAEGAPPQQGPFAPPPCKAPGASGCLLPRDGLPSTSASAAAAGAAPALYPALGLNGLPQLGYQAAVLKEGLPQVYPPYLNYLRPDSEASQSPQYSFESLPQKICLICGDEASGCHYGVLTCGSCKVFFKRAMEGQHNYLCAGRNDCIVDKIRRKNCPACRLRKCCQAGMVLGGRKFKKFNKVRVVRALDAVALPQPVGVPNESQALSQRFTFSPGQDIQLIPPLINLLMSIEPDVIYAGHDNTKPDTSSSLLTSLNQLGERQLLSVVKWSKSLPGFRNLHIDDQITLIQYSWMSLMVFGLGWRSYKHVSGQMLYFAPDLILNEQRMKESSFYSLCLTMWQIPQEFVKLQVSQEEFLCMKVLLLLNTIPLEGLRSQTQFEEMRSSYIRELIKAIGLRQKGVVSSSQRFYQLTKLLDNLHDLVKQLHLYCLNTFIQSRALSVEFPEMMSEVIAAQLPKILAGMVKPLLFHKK
# Assay: Efficacy as a function of maximal inhibition against human progesterone receptor B (hPR-B).
row,Compound,Efficacy [%]
1,Cn1c(=O)cc(C(F)(F)F)c2cc3c(cc21)NC(C)(C)CC3,74
2,CC(=O)O[C@]1(C(C)=O)CC[C@H]2[C@@H]3C=C(Cl)C4=CC(=O)[C@@H]5C[C@@H]5[C@]4(C)[C@H]3CC[C@@]21C,12
3,CCCC1(C)CCc2cc3c(C(F)(F)F)cc(O)nc3cc2N1 (stereo unspecified),86
4,CC1(C)CCc2cc3c(C(F)(F)F)cc(O)nc3cc2N1,80
5,C[C@@H]1c2cc3c(C(F)(F)F)cc(O)nc3cc2NC(C)(C)[C@H]1C,92
6,Cn1c(=O)cc(C(F)(F)F)c2cc3c(cc21)N1CCCC1(C)CC3 (stereo unspecified),84
7,CC1=CC(C)(C)Nc2cc3c(cc21)c(C(F)(F)F)cc(=O)n3C,88
8,CC1c2cc3c(C(F)(F)F)cc(O)nc3cc2NC(C)(C)C1(C)C (stereo unspecified),93
9,CC(C)C1CC(C)(C)Nc2cc3nc(O)cc(C(F)(F)F)c3cc21 (stereo unspecified),59
10,Cc1c2c(cc3c(C(F)(F)F)cc(O)nc13)C(C)CC(C)(C)N2 (stereo unspecified),74
11,CC1=CC(C)(C)Nc2cc3nc(O)cc(C)c3cc21,83
12,CC1=CC(C)(C)N(C)c2cc3nc(O)cc(C(F)(F)F)c3cc21,55
13,CCC1Cc2cc3c(C(F)(F)F)cc(O)nc3cc2NC1(C)C (stereo unspecified),82
14,CCC1CC(C)(C)Nc2cc3nc(O)cc(C(F)(F)F)c3cc21 (stereo unspecified),74
15,CC1CC(C)(C)Nc2cc3nc(O)cc(C(F)(F)F)c3cc21 (stereo unspecified),86
16,CC1(C)Cc2cc3c(C(F)(F)F)cc(O)nc3cc2NC1(C)C,98
17,CCn1c(=O)cc(C(F)(F)F)c2cc3c(cc21)NC(C)(C)C=C3C,55
18,CC1Cc2cc3c(C(F)(F)F)cc(O)nc3cc2NC1(C)C (stereo unspecified),89
19,CCC1(CC)CCc2cc3c(C(F)(F)F)cc(O)nc3cc2N1,81
20,Cc1c2c(cc3c(C(F)(F)F)cc(=O)n(C)c13)C(C)CC(C)(C)N2 (stereo unspecified),79
21,Oc1cc(C(F)(F)F)c2cc3c(cc2n1)NC1(CCCCC1)CC3,94
22,CC1=CC(C)(C)Nc2cc3nc(O)cc(C(F)(F)F)c3cc21,62
23,CC1=CC(C)(C)Nc2c1cc1c(C(F)(F)F)cc(O)nc1c2C,88

# Target: T2, Progesterone receptor (Homo sapiens, UniProt P06401)
# T2 sequence (P06401 whole entry): T1 sequence (whole entry)
# Assay: Antagonistic activity against human progesterone receptor B (hPR-B) in co-transfected CV-1 cells.
# Type: functional, cell-based
row,Compound,IC50 [nM]
1,Cn1c(=O)cc(C(F)(F)F)c2cc3c(cc21)NC(C)(C)CC3,1240
2,C[C@@H]1c2cc3c(C(F)(F)F)cc(O)nc3cc2NC(C)(C)[C@H]1C,735
3,Cn1c(=O)cc(C(F)(F)F)c2cc3c(cc21)N1CCCC1(C)CC3 (stereo unspecified),398
4,CC1=CC(C)(C)Nc2cc3c(cc21)c(C(F)(F)F)cc(=O)n3C,233
5,CC1c2cc3c(C(F)(F)F)cc(O)nc3cc2NC(C)(C)C1(C)C (stereo unspecified),362
6,CC(C)C1CC(C)(C)Nc2cc3nc(O)cc(C(F)(F)F)c3cc21 (stereo unspecified),3160
7,CC1=CC(C)(C)N(C)c2cc3nc(O)cc(C(F)(F)F)c3cc21,1680
8,CCC1CC(C)(C)Nc2cc3nc(O)cc(C(F)(F)F)c3cc21 (stereo unspecified),274
9,CC1CC(C)(C)Nc2cc3nc(O)cc(C(F)(F)F)c3cc21 (stereo unspecified),231
10,CCn1c(=O)cc(C(F)(F)F)c2cc3c(cc21)NC(C)(C)C=C3C,1760
11,CCC1(CC)CCc2cc3c(C(F)(F)F)cc(O)nc3cc2N1,2710
12,Cc1c2c(cc3c(C(F)(F)F)cc(=O)n(C)c13)C(C)CC(C)(C)N2 (stereo unspecified),2930
13,Oc1cc(C(F)(F)F)c2cc3c(cc2n1)NC1(CCCCC1)CC3,1830

# Target: T3, Androgen receptor (Homo sapiens, UniProt P10275)
# T3 sequence (P10275 whole entry): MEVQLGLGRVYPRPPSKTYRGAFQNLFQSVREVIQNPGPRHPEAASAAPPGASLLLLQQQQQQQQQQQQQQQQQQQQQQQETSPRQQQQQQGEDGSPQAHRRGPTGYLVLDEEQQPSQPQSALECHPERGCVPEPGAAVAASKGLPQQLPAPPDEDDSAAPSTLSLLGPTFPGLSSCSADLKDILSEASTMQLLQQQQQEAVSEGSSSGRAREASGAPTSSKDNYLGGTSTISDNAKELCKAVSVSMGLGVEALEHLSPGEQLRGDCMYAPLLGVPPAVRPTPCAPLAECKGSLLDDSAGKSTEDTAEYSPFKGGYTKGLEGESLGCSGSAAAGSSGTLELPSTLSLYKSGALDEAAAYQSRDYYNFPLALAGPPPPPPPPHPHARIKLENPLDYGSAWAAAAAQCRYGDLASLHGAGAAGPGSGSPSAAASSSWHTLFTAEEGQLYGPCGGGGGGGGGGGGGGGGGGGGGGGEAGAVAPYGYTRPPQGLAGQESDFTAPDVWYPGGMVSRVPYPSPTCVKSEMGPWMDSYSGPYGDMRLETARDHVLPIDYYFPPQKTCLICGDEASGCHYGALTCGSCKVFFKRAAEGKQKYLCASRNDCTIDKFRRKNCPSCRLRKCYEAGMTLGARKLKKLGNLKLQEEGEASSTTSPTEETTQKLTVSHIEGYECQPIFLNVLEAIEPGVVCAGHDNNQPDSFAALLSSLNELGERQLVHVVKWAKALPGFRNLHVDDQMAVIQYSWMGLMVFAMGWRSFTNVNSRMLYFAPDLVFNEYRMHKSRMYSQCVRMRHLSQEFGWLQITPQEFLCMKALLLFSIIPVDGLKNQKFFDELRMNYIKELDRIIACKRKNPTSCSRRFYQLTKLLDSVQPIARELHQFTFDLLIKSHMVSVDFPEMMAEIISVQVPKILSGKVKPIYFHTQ
# Assay: not given
row,Compound,IC50 [nM]
1,Cn1c(=O)cc(C(F)(F)F)c2cc3c(cc21)NC(C)(C)CC3,36
2,CC1=CC(C)(C)Nc2cc3c(cc21)c(C(F)(F)F)cc(=O)n3C,34
3,CC1c2cc3c(C(F)(F)F)cc(O)nc3cc2NC(C)(C)C1(C)C (stereo unspecified),57
4,CC(C)C1CC(C)(C)Nc2cc3nc(O)cc(C(F)(F)F)c3cc21 (stereo unspecified),159
5,CC1=CC(C)(C)N(C)c2cc3nc(O)cc(C(F)(F)F)c3cc21,156
6,CCC1CC(C)(C)Nc2cc3nc(O)cc(C(F)(F)F)c3cc21 (stereo unspecified),27
7,CCn1c(=O)cc(C(F)(F)F)c2cc3c(cc21)NC(C)(C)C=C3C,692
8,CCC1(CC)CCc2cc3c(C(F)(F)F)cc(O)nc3cc2N1,27
9,Cc1c2c(cc3c(C(F)(F)F)cc(=O)n(C)c13)C(C)CC(C)(C)N2 (stereo unspecified),31
10,Oc1cc(C(F)(F)F)c2cc3c(cc2n1)NC1(CCCCC1)CC3,35

# Target: T3, Androgen receptor
# Assay: biochemical
# Description: Binding affinity for human androgen receptor in transiently-transfected COS-1 cells.
row,Compound,Ki [nM]
1,Cn1c(=O)cc(C(F)(F)F)c2cc3c(cc21)NC(C)(C)CC3,56
2,CC1=CC(C)(C)Nc2cc3c(cc21)c(C(F)(F)F)cc(=O)n3C,81
3,CC1c2cc3c(C(F)(F)F)cc(O)nc3cc2NC(C)(C)C1(C)C (stereo unspecified),358
4,CC(C)C1CC(C)(C)Nc2cc3nc(O)cc(C(F)(F)F)c3cc21 (stereo unspecified),650
5,CC1=CC(C)(C)N(C)c2cc3nc(O)cc(C(F)(F)F)c3cc21,695
6,CCC1CC(C)(C)Nc2cc3nc(O)cc(C(F)(F)F)c3cc21 (stereo unspecified),54
7,CCn1c(=O)cc(C(F)(F)F)c2cc3c(cc21)NC(C)(C)C=C3C,670
8,CCC1(CC)CCc2cc3c(C(F)(F)F)cc(O)nc3cc2N1,102
9,Cc1c2c(cc3c(C(F)(F)F)cc(=O)n(C)c13)C(C)CC(C)(C)N2 (stereo unspecified),40
10,Oc1cc(C(F)(F)F)c2cc3c(cc2n1)NC1(CCCCC1)CC3,9
